Data reported in patent publication US6156700A, “3-(1,2-Benzisothiazol- and isoxazol-5-yl)-2,4(1H,3H)-pyrimidinedione or thione and 3-(1,2-benzisothiazol- and isoxazol-5-yl)-4(3H)-pyrimidinone or thione herbicidal agents” (American Cyanmid Company, priority 1998, dated 2000).

Tests used:
Conditions in all cases: 0.0630 kg/ha
Corn, Field, Zea mays = test: Postemergence herbicidal evaluation, ZEAMX; assay type: in vivo, L.
Protocol: (§1) In the tests, seedling plants are grown in jiffy flats for about two weeks. The test compounds are dispersed in 50/50 acetone/water mixtures containing 0.5% TWEEN®20, a polyoxyethylene sorbitan monolaurate surfactant of Atlas Chemical Industries, in sufficient quantities to provide the equivalent of about 0.0157 kg to 0.500 kg per hectare of active compound when applied to the plants through a spray nozzle operating at 40 psi for a predetermined time. After spraying, the plants are placed on greenhouse benches and are cared for in accordance with conventional greenhouse procedures. From four to five weeks after treatment, the seedling plants are examined and rated according to the rating system set forth below. Where more than one test is involved for a given compound, the data are averaged.
(§2) Results of herbicide evaluation are expressed on a rating scale (0-9). The scale is based upon a visual observation of plant stand, vigor, malformation, size, chlorosis and overall plant appearance as compared with a control.

Galium, Galium aparine = test: Postemergence herbicidal evaluation, GALAP; assay type: in vivo
Protocol: as §1, §2

[1] = test system: Soybean, Williams, Glycine max; test: Postemergence herbicidal evaluation, GLXMAW; assay type: in vivo, (L.) Merr. cv Williams
Protocol: as §1, §2

[2] = test system: Ragweed, Common, Ambrosia artemisifolia; test: Postemergence herbicidal evaluation, AMBEL; assay type: in vivo, L.
Protocol: as §1, §2

[3] = test system: Barnyardgrass, Echinochloa crus-galli; test: Postemergence herbicidal evaluation, ECHCG; assay type: in vivo, (L.) Beau
Protocol: as §1, §2

[4] = test system: Lambsquarters, Common, Chenopodium album; test: Postemergence herbicidal evaluation, CHEAL; assay type: in vivo, L.
Protocol: as §1, §2

[5] = test system: Wheat, Winter, cv Riband, Triticum aestivum; test: Postemergence herbicidal evaluation, TRZAWR; assay type: in vivo
Protocol: as §1, §2

[6] = test system: Sicklepod, Cassia obtusifolia; test: Postemergence herbicidal evaluation, CASOB; assay type: in vivo, L.
Protocol: as §1, §2

[7] = test system: Foxtail, Green, Setaria viridis; test: Postemergence herbicidal evaluation, SETVI; assay type: in vivo, (L.) Beau
Protocol: as §1, §2

[8] = test system: Rice, Tebonnet, Oryza sativa; test: Postemergence herbicidal evaluation, ORYSAT; assay type: in vivo, (L.) Tebonnet
Protocol: as §1, §2

[9] = test system: Morningglory, Ivyleaf, Ipomoea hederacea; test: Postemergence herbicidal evaluation, IPOHE; assay type: in vivo, (L.) Jacq.
Protocol: as §1, §2

[10] = test system: Velvetleaf, Abutilon theophrasti; test: Postemergence herbicidal evaluation, ABUTH; assay type: in vivo, Medic.
Protocol: as §1, §2

Question: What does the source list for `COCc1nsc2ccc(-n3c(=O)cc(C(F)(F)F)n(C)c3=O)cc12` [Compound 31, 3-[3-(Methoxymethyl)-1,2-benzisothiazol-5-yl]-1-methyl-6-(trifluoromethyl)-2,4 (1H,3H)-pyrimidinedione]?
Answer: herbicide rating (0-9) (Corn, Field, Zea mays): 6.0; herbicide rating (0-9) (Galium, Galium aparine): 8.0; herbicide rating (0-9) [1]: 9.0; herbicide rating (0-9) [2]: 9.0; herbicide rating (0-9) [3]: 4.0; herbicide rating (0-9) [4]: 9.0; herbicide rating (0-9) [5]: 3.0; herbicide rating (0-9) [6]: 9.0; herbicide rating (0-9) [7]: 9.0; herbicide rating (0-9) [8]: 3.0; herbicide rating (0-9) [9]: 9.0; herbicide rating (0-9) [10]: 9.0

Question: With `CC(=O)OCc1nsc2ccc(-n3c(=O)cc(C(F)(F)F)n(C)c3=O)cc12` [Compound 32, 3-[3-(Hydroxymethyl)-1,2-benzisothiazol-5-yl]-1-methyl-6-(trifluoromethyl)-2,4(1H,3H)-pyrimidinedione,acetate ester] as the compound, how does the “herbicide rating (0-9)” value (Corn, Field, Zea mays) read?
Answer: The value was 5.5.

Question: What about the “herbicide rating (0-9)” value (Galium, Galium aparine) of the same compound?
Answer: Its value is 7.0.

Question: What about the “herbicide rating (0-9)” value [1] of the same compound?
Answer: Its value is 5.5.

Question: What about the “herbicide rating (0-9)” value [2] of the same compound?
Answer: The value was 9.0.

Question: And the “herbicide rating (0-9)” value [3]?
Answer: The value was 2.0.

Question: What about the “herbicide rating (0-9)” value [4] of the same compound?
Answer: Its value is 9.0.

Question: And the “herbicide rating (0-9)” value [5]?
Answer: Its value is 2.0.

Question: What about the “herbicide rating (0-9)” value [6] of the same compound?
Answer: Its value is 4.0.

Question: And the “herbicide rating (0-9)” value [7]?
Answer: The value was 5.0.

Question: And the “herbicide rating (0-9)” value [8]?
Answer: Its value is 1.0.

Question: And the “herbicide rating (0-9)” value [9]?
Answer: The value was 9.0.

Question: What about the “herbicide rating (0-9)” value [10] of the same compound?
Answer: The value was 9.0.

Question: Which results are given for `COC(=O)C(C)Oc1ccc(C)cc1-c1nsc2ccc(-n3c(=S)cc(C(F)(F)F)n(C)c3=O)cc12` (stereo not drawn) [Compound 33, Methyl 2-{{2-{5-[3,6-dihydro-3-methyl-2-oxo-6-thioxo-4-(trifluoromethyl)-1(2H)-pyrimidinyl]-1,2-benzisothiazol-3-yl}-p-tolyl}oxy}propionate]?
Answer: herbicide rating (0-9) (Corn, Field, Zea mays): 8.5; herbicide rating (0-9) (Galium, Galium aparine): 9.0; herbicide rating (0-9) [1]: 6.0; herbicide rating (0-9) [2]: 9.0; herbicide rating (0-9) [3]: 9.0; herbicide rating (0-9) [4]: 9.0; herbicide rating (0-9) [5]: 8.5; herbicide rating (0-9) [6]: 8.0; herbicide rating (0-9) [7]: 9.0; herbicide rating (0-9) [8]: 7.5; herbicide rating (0-9) [9]: 9.0; herbicide rating (0-9) [10]: 9.0

Question: Which “herbicide rating (0-9)” value (Corn, Field, Zea mays) does the source give for `COc1cc(C)c(C)c(C)c1-c1nsc2ccc(-n3c(=O)cc(C(F)(F)F)n(C)c3=O)cc12` [Compound 34, 3-[3-(6-Methoxy-2,3,4-trimethylphenyl)-1,2-benzisothiazol-5-yl]-1-methyl-6-(trifluoromethyl)-2,4(1H,3H)-pyrimidinedione] here?
Answer: Its value is 4.0.

Question: What about the “herbicide rating (0-9)” value (Galium, Galium aparine) of the same compound?
Answer: Its value is 0.0.

Question: And the “herbicide rating (0-9)” value [1]?
Answer: The value was 3.0.

Question: What about the “herbicide rating (0-9)” value [2] of the same compound?
Answer: The value was 1.0.

Question: And the “herbicide rating (0-9)” value [3]?
Answer: The value was 1.0.

Question: What about the “herbicide rating (0-9)” value [4] of the same compound?
Answer: The value was 4.0.

Question: And the “herbicide rating (0-9)” value [5]?
Answer: Its value is 0.0.

Question: What about the “herbicide rating (0-9)” value [6] of the same compound?
Answer: Its value is 0.0.

Question: What about the “herbicide rating (0-9)” value [7] of the same compound?
Answer: The value was 7.0.

Question: And the “herbicide rating (0-9)” value [8]?
Answer: The value was 0.0.

Question: And the “herbicide rating (0-9)” value [9]?
Answer: The value was 0.0.

Question: And the “herbicide rating (0-9)” value [10]?
Answer: The value was 0.0.

Question: Which “herbicide rating (0-9)” value (Corn, Field, Zea mays) does the source give for `Cn1c(C(F)(F)F)cc(=O)n(-c2ccc3snc(Br)c3c2)c1=O` [Compound 36, 3-(3-Bromo-1,2-benzisothiazol-5-yl)-1-methyl-6-(trifluoromethyl)-2,4(1H,3H)-pyrimidinedione] here?
Answer: The value was 1.5.

Question: And the “herbicide rating (0-9)” value (Galium, Galium aparine)?
Answer: The value was 0.0.

Question: And the “herbicide rating (0-9)” value [1]?
Answer: The value was 0.0.

Question: What about the “herbicide rating (0-9)” value [2] of the same compound?
Answer: Its value is 0.0.

Question: And the “herbicide rating (0-9)” value [3]?
Answer: The value was 1.0.

Question: What about the “herbicide rating (0-9)” value [4] of the same compound?
Answer: Its value is 0.0.

Question: And the “herbicide rating (0-9)” value [5]?
Answer: Its value is 0.5.

Question: And the “herbicide rating (0-9)” value [6]?
Answer: Its value is 0.0.

Question: What about the “herbicide rating (0-9)” value [7] of the same compound?
Answer: Its value is 9.0.

Question: What about the “herbicide rating (0-9)” value [8] of the same compound?
Answer: The value was 0.5.

Question: What about the “herbicide rating (0-9)” value [9] of the same compound?
Answer: The value was 1.0.

Question: And the “herbicide rating (0-9)” value [10]?
Answer: The value was 0.0.
